In patent publication US4061645A, “2-Trichloromethyl-5-methylsulfinyl-1,3,4-thiadiazole” (Schering Aktiengesellschaft, priority 1972, dated 1977):
Like-named read-outs stand apart in the source and are kept apart here.

Columns and labels:
Pythium ultimum [1] = assay: Limit concentration of soil-fungicidal effectiveness, Pythium ultimum, infested soil seeded with peas (Example 1); assay type: in vivo; conditions: 20 to 23 days, 22°-25° C
Experimental: Limit concentrations of the soil-fungicidal effectiveness at homogeneous mixture of the products with the infested soil. Basic condition in the evaluation are a sound root formation without fungus necroses and germination of the seed of at least 90% compared with the result obtained in steamed soil. Per concentration there were seeded 25 grains of peas of the variety "Miracle of Kelvedon" (marrow pea) without a waiting period. The cultivation time in the tests was 20 to 23 days at a temperature of 22°-25° C. Four commercial products were included in the test series.
Pythium ultimum: -- Steamed compost soil was inoculated with mycelium of Pythium ultimum

Rhizoctonia solani [2] = assay: Limit concentration of soil-fungicidal effectiveness, Rhizoctonia solani, infested soil seeded with peas (Example 1); assay type: in vivo; conditions: soil, 480 h, read-out: Limit concentration of the fungicidal effectiveness
Outline: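 Compound mixed homogeneously into steamed compost soil inoculated with Rhizoctonia solani mycelium, and 25 marrow pea seeds ("Miracle of Kelvedon") sown per concentration without a waiting period. Grown 20 to 23 days at 22°-25° C. Limit concentration is the lowest giving sound, necrosis-free roots and at least 90% germination relative to steamed soil.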

Pythium ultimum [3] = assay: Pythium ultimum infested compost soil, marrow peas (Example 2); assay type: in vivo; conditions: for Number of sound peas after 3 wks.: of 25 grains
Text: Steamed compost soil was inoculated with mycelium of Pythium ultimum.

Rhizoctonia solani [4] = assay: Rhizoctonia solani infested compost soil, marrow peas (Example 3); assay type: in vivo; conditions: for Weight of fresh plant / Root evaluation (1-4): 3 weeks; for Number of sound peas after 3 wks.: of 25 grains
Text: Steamed compost soil was inoculated with mycelium of Rhizoctonia solani. After homogeneous mixture of the products with the infested soil, the products were present in the form of 20% powder preparations, the seeding of 25 grains of marrow peas of the variety "Miracle of Kelvedon" per concentration was effected without waiting period in clay dishes holding 1 liter of soil. The table lists the number of germinated sound peas, the weight of the fresh plant, and a root evaluation after a cultivation period of three weeks at 22°-25° C.

[5] = tested on: Fusarium oxysporum f. callistephi; assay: Fusarium infested compost soil, Callistephus chinesis seedlings (Example 5); assay type: in vivo; conditions: of 4 seedlings
Text: Steamed compost soil was inoculated with a spore suspension of Fusarium oxysporum f. callistephi. After homogeneous mixture of the products with the infested soil, the products were present as 20% powder preparations, and after a waiting period of 8 days, there were set out per concentration 4 seedlings of Callistephus chinesis, master aster "Sun Ray" as host plants.

Pythium ultimum [6] = assay: Fungistatic and fungicidal action on Pythium ultimum with varying active ingredient percentages (Example 4); assay type: in vivo
Text: Comparison of the fungistatic and fungicidal action on Pythium ultimum when using preparations with varyng active ingredient percentages on siliceous clay. Steamed compost soil was inoculated with mycelium of Pythium ultimum. After forming a homogeneous mixture of the products with the infested soil, […], the seeding of 25 grains of marrow peas of the variety "Miracle of Kelvedon" per concentration in clay dishes holding 1 liter of soil followed without a waiting period. In the table is stated the fresh number of germinated sound peas, the weight of the fresh plant, and a root evaluation after a cultivation period of three weeks at 22°-25° C.

Damping-off Fungi = assay: Cotton seed disinfection, normal compost soil (Example 6); assay type: in vivo; conditions: 100 mg active ingr. per kg of seed; 10% formulation; 15 days
Experimental: Cotton seeds disinfected with 10% formulations were seeded in normal compost soil (Damping-off Fungi), 25 grains per concentration. After a cultivation time of 15 days at 22°-25° C, the number of germinated sound cotton seedlings and their weight as fresh plants were determined.

Asperqilus niger = assay: Agar test (Example 7), Aspergillus; assay type: cell-based; conditions: 10 ppm; 5 days at 22° C; control 100
Outline: (§1)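 Compound mixed into sterilised 2% malt extract/1.5% agar before solidification at 10 ppm. Plates inoculated with 100 spores of each fungus; colony diameter (mm) measured after five days at 22° C.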

Botrytis cinerea = assay: Agar test (Example 7), Botrytis; assay type: cell-based; conditions: 10 ppm; 5 days at 22° C; control 100
Outline: as §1

[7] = tested on: Colletotrichum gloeosporioides; assay: Agar test (Example 7), Colletotrichum; assay type: cell-based; conditions: 10 ppm; 5 days at 22° C; control 100
Outline: as §1

Helminthosporium sativum = assay: Agar test (Example 7), Helminthosporium; assay type: cell-based; conditions: 10 ppm; 5 days at 22° C; control 100
Outline: as §1

Stemphylium ilicis = assay: Agar test (Example 7), Stemphylium; assay type: cell-based; conditions: 10 ppm; 5 days at 22° C; control 100
Outline: as §1

Meloidogyne incognita = assay: Nematocidal action, infested compost soil, cucumber seeds (Example 8); assay type: in vivo; conditions: 30 days
Experimental: The products as 20% powder preparations were homogeneously admixed with a compost soil heavily infested by root gal nematodes. Without a waiting period, 20 cucumber seeds per concentration were seeded. After a cultivation time of 30 days at a temperature of 23°-25° C, the nematocidal action was evaluated by counting the root galls formed in the waterbath. The following table states the reduction of attack in percent. In the control, an average of 90 root galls per seedling had formed.

Pyrenochaeta lycopersici = assay: Control of Pyrenochaeta lycopersici, corky root disease of the tomato, open field (Example 9); assay type: in vivo; conditions: 10% granulate
Text: Control of Pyrenochaeta lycopersici, corky root disease of the tomato.
On a naturally invested open field area, 2-dichloromethyl-5-methylsulfonyl-1,3,4-thiadiazole was scattered as a 10% granulate formulation and hoed in 20 cm deep. […] After a reaction period of three weeks, tomato plants of the variety "Ronald-M" which were 8 weeks old were set out at a distance from each other of 50 × 70 cm. The harvest results indicated in the table are average values of 40 plants per lot and refer to harvested ripe tomatoes.

[8] = 200 mg active ingr. per liter of soil, 3 weeks
[9] = 10 mg active ingr. per liter of soil
[10] = 20 mg active ingr. per liter of soil
[11] = 30 mg active ingr. per liter of soil
[12] = 40 mg active ingr. per liter of soil
[13] = 50 mg active ingredient per liter of soil
[14] = 100 mg active ingredient per liter of soil
[15] = 5% formulation, 6 mg active ingr. per liter of soil
[16] = 5% formulation, 10 mg active ingr. per liter of soil
[17] = 10% formulation, 6 mg active ingr. per liter of soil
[18] = 10% formulation, 10 mg active ingr. per liter of soil
[19] = 20% formulation, 6 mg active ingr. per liter of soil
[20] = 20% formulation, 10 mg active ingr. per liter of soil
[21] = 10 g active ingr. per square meter
[22] = 20 g active ingr. per square meter

Compound: COc1cc(Cl)c(OC)cc1Cl [1,4-dichloro-2,5-dimethoxy-benzene, 1,4-dichloro-2,5-dimethoxybenzene, reference compound]
- Limit concentration of the fungicidal effectiveness (Pythium ultimum [1]): insufficient
- minimal effective concentration (Rhizoctonia solani [2]): 30 µg/mL
- Root evaluation (1-4) (Pythium ultimum [3]; [8]): 1
- Weight of fresh plant (Pythium ultimum [3]; [8]): 1 g
- Number of sound peas after 3 wks. (Pythium ultimum [3]; 200 mg active ingr. per liter of soil): 2
- Weight of fresh plant (Rhizoctonia solani [4]; [9]): 0 g
- Number of sound peas after 3 wks. (Rhizoctonia solani [4]; [9]): 0
- Weight of fresh plant (Rhizoctonia solani [4]; [10]): 0 g
- Number of sound peas after 3 wks. (Rhizoctonia solani [4]; [10]): 0
- Root evaluation (1-4) (Rhizoctonia solani [4]; [11]): 4
- Weight of fresh plant (Rhizoctonia solani [4]; [11]): 18 g
- Number of sound peas after 3 wks. (Rhizoctonia solani [4]; [11]): 21
- Root evaluation (1-4) (Rhizoctonia solani [4]; [12]): 4
- Weight of fresh plant (Rhizoctonia solani [4]; [12]): 18 g
- Number of sound peas after 3 wks. (Rhizoctonia solani [4]; [12]): 22
- Number of attacked plants after 3 weeks [5, 13]: 4
- Number of attacked plants after 3 weeks [5, 14]: 4
- Number of attacked plants after 3 weeks ([5]; 200 mg active ingredient per liter of soil): 4

Compound: CS(=O)(=O)c1nnc(C(Cl)Cl)s1 [Compound 17, 2-dichloromethyl-5-methylsulfonyl-1,3,4-thiadiazole]
- minimal effective concentration (Rhizoctonia solani [2]; 20 to 23 days, 22°-25° C): 20 µg/mL
- Weight of fresh plant (Pythium ultimum [3]; 10 mg active ingr. per liter of soil, 3 weeks): 24 g
- Number of sound peas after 3 wks. (Pythium ultimum [3]; [9]): 23
- Weight of fresh plant (Pythium ultimum [3]; 20 mg active ingr. per liter of soil, 3 weeks): 22 g
- Number of sound peas after 3 wks. (Pythium ultimum [3]; [10]): 24
- Weight of fresh plant (Pythium ultimum [3]; 30 mg active ingr. per liter of soil, 3 weeks): 26 g
- Number of sound peas after 3 wks. (Pythium ultimum [3]; [11]): 24
- Weight of fresh plant (Rhizoctonia solani [4]; [9]): 0 g
- Number of sound peas after 3 wks. (Rhizoctonia solani [4]; [9]): 0
- Weight of fresh plant (Rhizoctonia solani [4]; [10]): 14 g
- Number of sound peas after 3 wks. (Rhizoctonia solani [4]; [10]): 23
- Weight of fresh plant (Rhizoctonia solani [4]; [11]): 14 g
- Number of sound peas after 3 wks. (Rhizoctonia solani [4]; [11]): 22
- Number of sound peas after 3 weeks (Pythium ultimum [6]; [15]): 12
- Root evaluation (1-4) (Pythium ultimum [6]; [15]): 1
- Weight of fresh plant (Pythium ultimum [6]; [15]): 9 g
- Number of sound peas after 3 weeks (Pythium ultimum [6]; [16]): 24
- Root evaluation (1-4) (Pythium ultimum [6]; [16]): 4
- Weight of fresh plant (Pythium ultimum [6]; [16]): 20 g
- Number of sound peas after 3 weeks (Pythium ultimum [6]; [17]): 24
- Root evaluation (1-4) (Pythium ultimum [6]; [17]): 1
- Weight of fresh plant (Pythium ultimum [6]; [17]): 15 g
- Number of sound peas after 3 weeks (Pythium ultimum [6]; [18]): 22
- Root evaluation (1-4) (Pythium ultimum [6]; [18]): 4
- Weight of fresh plant (Pythium ultimum [6]; [18]): 24 g
- Number of sound peas after 3 weeks (Pythium ultimum [6]; [19]): 22
- Root evaluation (1-4) (Pythium ultimum [6]; [19]): 2
- Weight of fresh plant (Pythium ultimum [6]; [19]): 17 g
- Number of sound peas after 3 weeks (Pythium ultimum [6]; [20]): 24
- Root evaluation (1-4) (Pythium ultimum [6]; [20]): 4
- Weight of fresh plant (Pythium ultimum [6]; [20]): 16 g
- Number of attacked plants after 3 weeks [5, 13]: 0
- Number of attacked plants after 3 weeks [5, 14]: 0
- Sound plants in % (Damping-off Fungi): 100%
- Weight of fresh plant (Damping-off Fungi): 23 g
- diameter of the colonies (Asperqilus niger): 0 mm
- diameter of the colonies (Botrytis cinerea): 0 mm
- diameter of the colonies [7]: 0 mm
- diameter of the colonies (Helminthosporium sativum): 0 mm
- diameter of the colonies (Stemphylium ilicis): 0 mm
- Nematocidal action in % (reduction of attack) (Meloidogyne incognita; 40 mg per liter of soil): 90%
- Nematocidal action in % (reduction of attack) (Meloidogyne incognita; 60 mg per liter of soil): 94%
- Tomatoes per plant, relative to 0 g (Pyrenochaeta lycopersici; [21]): 159%
- Weight of single tomato, relative to 0 g (Pyrenochaeta lycopersici; [21]): 110%
- Yield per plant, relative to 0 g (Pyrenochaeta lycopersici; [21]): 171%
- Tomatoes per plant, relative to 0 g (Pyrenochaeta lycopersici; [22]): 165%
- Weight of single tomato, relative to 0 g (Pyrenochaeta lycopersici; [22]): 130%
- Yield per plant, relative to 0 g (Pyrenochaeta lycopersici; [22]): 213%
